Tested on: TEAD-dependent transcription
Test: Inhibitor activity against TEAD-dependent transcription in a cell-based reporter assay (MSTO-211H+12XGTIIC luciferase)
Details: Homo sapiens; MSTO-211H+12XGTIIC cell line, 24 hours compound incubation, luminescence normalized to cell viability fluorescence; read-out: MSTO-211H GMean IC50 (uM) Cell Assay Reporter Cell Variant: TEAD
Description: Determine Inhibitor Activity Against TEAD-Dependent Transcription in a Cell-Based Reporter Assay
The human mesothelioma cell line MSTO-211H was stably transfected with a pGL4.21 plasmid containing a synthetic promoter with 12 copies of the GTIIC TEAD response element that drives the expression of a luciferase reporter gene^1 using Lipofectamine transfection reagent (Thermno Fisher). Transfected cells were selected using puromycin and single cell clones expressing this construct (referred to as MSTO-211H+12XGTIIC) were generated by limiting dilution. MSTO-211H cells was characterized by genetic alterations in key components of the Hippo pathway^2, resulting in up-regulation of YAP/TEAD-mediated transcription. […] To evaluate TEAD inhibitors, the MSTO-211H+12XGTIIC cell line was seeded in a 96-well plate in 50 μL of culture media at 1×10^4 cells per well and incubated at 37° C. overnight. Serial dilutions of compounds (in total volume of 50 μL of culture media) were added to the cells and incubated at 37° C. for 24 hours. Each plate included cells treated with DMSO as high controls and cells treated with 20 μM of the reference compound K-975 (a known TEAD inhibitor)^3 as low controls. Cell viability was assayed by the addition of 25 μL of CellTiter-Fluor reagent (Promega) followed by a 30-minute incubation at 37° C. and quantification of the fluorescence signal (Ex400/Em505). Subsequently, luciferase expression was assayed by the addition of 25 μL of ONE-Glo reagent (Promega) followed by a 10-minute incubation at room temperature and quantification of the luminescence signal. The luminescence signal was normalized to the fluorescence signal to correct for any loss in cell viability over the 24-hour compound incubation period. The percentage of inhibition of normalized luminescence signal, indicative of compound-mediated inhibition of TEAD-dependent transcription, at individual compound concentrations relative to high and low controls was calculated. The data were analyzed by using nonlinear regression to generate IC50 values for individual compounds.

O=C1c2cccc(Oc3ccc(C(F)(F)F)cc3)c2CCN1c1ccnc([S+]([O-])C(F)(F)F)n1 (stereo not shown) [O-0112, 5-(4-(trifluoromethyl)phenoxy)-2-(2-((trifluoromethyl)sulfinyl)pyrimidin-4-yl)-3,4-dihydroisoquinolin-1(2H)-one]
IC50: 0.001 to 10 µM

Reference: patent publication US20250382279A1, “COMPOUNDS AND METHODS FOR YAP/TEAD MODULATION AND INDICATIONS THEREFOR” (OPNA BIO SA, priority 2023, published 2025)
